Data as given in US20230150951A1, “2,5- OR 2,6-DISUBSTITUTED HYDROQUINONE DERIVATIVES WITH AT LEAST ONE CARBOXY, SULFO OR AMIDO GROUP USEFUL AS MEDICAMENTS” (OM PHARMA SA, priority 2020, published 2023).

What was measured:
COX2 (cycloxygenase-2) = target: T1, COX2 (cycloxygenase-2) (Homo sapiens, UniProt P35354); test: Cyclooxygenase enzyme inhibition; format: biochemical
T1 sequence (P35354 18-604): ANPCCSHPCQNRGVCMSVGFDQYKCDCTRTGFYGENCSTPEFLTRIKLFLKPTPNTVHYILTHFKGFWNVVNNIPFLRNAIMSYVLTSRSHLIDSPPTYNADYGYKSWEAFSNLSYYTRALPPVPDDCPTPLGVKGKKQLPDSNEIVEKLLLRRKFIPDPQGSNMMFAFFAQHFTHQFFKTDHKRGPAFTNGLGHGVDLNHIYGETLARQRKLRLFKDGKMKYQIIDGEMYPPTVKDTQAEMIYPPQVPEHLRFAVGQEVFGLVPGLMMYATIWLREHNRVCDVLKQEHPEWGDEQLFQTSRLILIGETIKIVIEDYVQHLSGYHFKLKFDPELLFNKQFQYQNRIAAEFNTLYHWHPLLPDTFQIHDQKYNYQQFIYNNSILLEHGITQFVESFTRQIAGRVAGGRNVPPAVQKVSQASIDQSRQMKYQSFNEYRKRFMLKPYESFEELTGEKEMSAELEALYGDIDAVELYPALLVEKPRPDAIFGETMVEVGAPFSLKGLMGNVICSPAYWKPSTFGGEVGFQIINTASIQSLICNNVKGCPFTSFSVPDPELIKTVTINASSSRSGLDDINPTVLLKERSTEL

[1] = test system: thioglycolate-induced peritonitis; test: Thioglycolate-induced peritonitis murine model; format: in vivo, C57BL/6J mice; conditions: 50 mg/kg i.p. 1 h prior to thioglycolate
Description: Therapeutic efficacy of the compounds of the present invention was assessed using thioglycolate-induced peritonitis murine models as described by Cook A D et al. (J Immunol. 2003; 171(9):4816-4823) and Tsai J M et al. (Blood Adv. 2019; 3(18):2713-2721. doi: 10.1182/bloodadvances.2018024026).
C57BL/6J mice were injected intraperitoneally (i.p.) with 1 mL of compounds at 50 mg/kg 1 h prior to the induction of peritonitis. Peritonitis was then induced with 1 ml of sterile thioglycolate broth 4% (wt/vol) or PBS as control. After 3 h, mice were anesthetized by i.p. injection with a solution of PBS containing 5 mg/ml ketamine and 1 mg/ml xylazine and peritoneal cavities were washed with 5 ml ice-cold sterile Ca2+/Mg2+-free HBSS 1×containing EDTA 2 mM. Peritoneal exudate cells (PECs) were centrifuged at 1200 rpm for 5 min at 4° C. and red cells lysed. PECs were washed, resuspended in PBS 10% FBS, incubated with anti-CD16/CD32 and mIgG FcR blockers and then stained with fluorescently conjugated antibodies to characterize migrated leukocytes (anti-CD45, anti-CD11b, anti-Ly6G, anti-CD8a, anti-CD4, anti-CD3). Cell viability was measured by 7-AAD exclusion. Specimens were acquired by flow cytometry using MACSQuant Analyzer (Miltenyi Biotec) and analysed using FlowJo software.
Animals: four C57BL/6J mice per group for each compound versus four vehicle treated mice.
Read out was done 1 h after thioglycolate injection.
Readout method: flow cytometry to characterise migrated leukocytes using anti-CD45, anti-CD11b, anti-Ly6G, anti-CD8a, anti-CD4, anti-CD3.
Results and statistical analysis: Results were analysed using FlowJo software. Data were shown as mean±SEM. Two-tailed Student's t test using a significance level of 0.05 is used for the statistical analysis.

[2] = test system: human retinal endothelial cells (HRECs); test: Inner blood retinal barrier: HREC monolayer permeability to FITC-dextran; format: cell-based; conditions: for p < 0.05 (HREC permeability versus diabetic milieu): IL-β, after 90 min
From the text: The mechanisms of actions involved in the anti-permeability effect of the tested treatments were explored by assessing permeability to fluorescent dextran and proinflammatory cytokines production using their mRNA expression levels by RT-PCR.
Inner Blood Retinal Barrier conditions: primary human retinal endothelial cells (HRECs) were obtained from a vial of cryopreserved cells purchased from Innoprot (Vizcay, Spain). These cells were isolated from human retinal tissue of cadaveric eyes digested with 0.1 mg/mL collagenase type I at 37° C. for 1 hour. Then, endothelial cells were finally selected with CD31 antibody-coated magnetic beads (DynaBeads; Dynal, Oslo, Norway). HRECs were thawed in the laboratory and cultured in endothelial basal medium (EBM) containing, 5.5 mM D-glucose, 5% FBS (Fetal Bovine Serum), 100 U/mL penicillin, 100 μg/mL streptomycin, and ECG (Endothelial Cell Growth Supplement) supplement (Innoprot, Vizcay, Spain). Human fibronectin (MerckMillipore, Madrid, Spain) at 5 μg/mL was used for cell attachment. Cells at passages 2-3 will be used for the experiments. For experimentation, HRECs were grown to confluence and then cell culture media was changed to medium supplemented with 1% FBS for 24 h and then exposed to different treatments.
Conditions treatments: The same conditions specified for the experiment in ARPE-19 cells were used.
Measurement of HREC permeability: Permeability in HREC monolayers were obtained on permeable supports at 12×10^5 cells/well (24 wells, PCF filters, Merk Millipore). Inserts were incubated for 48 hours at 37° C. in 5% CO2-air to form the monolayer. At the end, medium was serum depleted 24 h before to proceed with the treatments. The lower chamber was filled with 600 μL of complete EBM medium and the upper chamber with 100 μL of cell suspension in serum depleted (1%).
To detect changes in the permeability, 100 μg/ml of fluorescent FITC-DEXTRAN (Sigma, Madrid, Spain), was added to the upper side of the insert. Aliquots of 200 μL from the basal compartment was read in a SpectraMax Gemini (Molecular Devices, Sunnyvale, Calif.) at a wavelength of excitation/emission 485/528 nm every 30 min. Finally, the concentration of dextran was determined by extrapolation of the fluorescence reads in a standard curve. Each condition was tested in triplicate.

[3] = No 3-5: 25 mM D-Gluc + compound 25 μg/mL
[4] = No 6-8: 25 mM D-Gluc + compound 50 μg/mL + VEGF, TNF-α, IL-β (so in the source)
[5] = No 11-13: 25 mM D-Gluc + compound 25 μg/mL + VEGF, TNF-α, IL-β (diabetic milieu)
[6] = No 11-13: compound 25 μg/mL + VEGF, TNF-α
[7] = No 14-16: 25 mM D-Gluc + compound 50 μg/mL + VEGF, TNF-α, IL-β (diabetic milieu)

## O=C(O)c1cc(O)c(CN(Cc2cc(O)c(C(=O)O)cc2O)Cc2cc(O)c(C(=O)O)cc2O)cc1O [IIIc-061a, Tris(4-carboxy-2,5-dihydroxyphenylmethyl)amine]
COX2 (cycloxygenase-2)
  Inhibition of COX2: partially inhibition
[1]
  % of reduction, CD4+ lymphocytes, treated over vehicle treated mice: 42.9%
  % of reduction, CD8+ lymphocytes, treated over vehicle treated mice: 33.3%
  % of reduction, Leukocytes (CD45+ cells), treated over vehicle treated mice: −2.4%
  % of reduction, PMNs (CD11b-Ly6G double + cells), treated over vehicle treated mice: −8.3%

## O=C(O)c1cc(NC(=O)c2cc(O)cc(C(=O)Nc3ccc(O)c(C(=O)O)c3)c2O)ccc1O [IIc-007a, 5-(3-(3-carboxy-4-hydroxyphenylaminocarbonyl)-2,5-dihydroxybenzamido)-2-hydroxy benzoic acid]
[2]; [3]
  % permeability HREC: 136.3 ± 16.7%
[2]; [4]
  % permeability HREC: 147.7 ± 17.6%
[2]; [5]
  % permeability HREC: 135.8 ± 16.6%
[2]; [6]
  p < 0.05 (HREC permeability versus diabetic milieu): * (* p < 0.05 for FITC dextran leakage measured after 90 min in [ng/mL/cm^2] in comparison with diabetic milieu (25 mM D-Gluose + VEGF, TNF-α, IL-β))
[2]; [7]
  % permeability HREC: 145.2 ± 8.8%
COX2 (cycloxygenase-2)
  Inhibition of COX2: partially inhibition
[1]
  % of reduction, CD4+ lymphocytes, treated over vehicle treated mice: 40.0%
  % of reduction, CD8+ lymphocytes, treated over vehicle treated mice: 20.0%
  % of reduction, Leukocytes (CD45+ cells), treated over vehicle treated mice: 11.8%
  % of reduction, PMNs (CD11b-Ly6G double + cells), treated over vehicle treated mice: 27.3%

## O=C(O)c1cc(O)cc(CS(=O)(=O)Cc2cc(O)cc(C(=O)O)c2O)c1O [IVc-059a, 3-((2,5-Dihydroxy-3-carboxyphenyl)methylsulfonylmethyl)-2,5-dihydroxybenzoic acid]
[2]; [3]
  % permeability HREC: 109.9 ± 24.7%
[2]; [4]
  % permeability HREC: 135.4 ± 6.7%
[2]; [5]
  % permeability HREC: 124.0 ± 6.3%
[2]; [6]
  p < 0.05 (HREC permeability versus diabetic milieu): * (* p < 0.05 for FITC dextran leakage measured after 90 min in [ng/mL/cm^2] in comparison with diabetic milieu (25 mM D-Gluose + VEGF, TNF-α, IL-β))
[2]; [7]
  % permeability HREC: 115.3 ± 14.7%
[2]; No 14-16: compound 50 μg/mL + VEGF, TNF-α
  p < 0.05 (HREC permeability versus diabetic milieu): * (* p < 0.05 for FITC dextran leakage measured after 90 min in [ng/mL/cm^2] in comparison with diabetic milieu (25 mM D-Gluose + VEGF, TNF-α, IL-β))
COX2 (cycloxygenase-2)
  Inhibition of COX2: partially inhibition
[1]
  % of reduction, CD4+ lymphocytes, treated over vehicle treated mice: 6.0%
  % of reduction, CD8+ lymphocytes, treated over vehicle treated mice: 23.0%
  % of reduction, Leukocytes (CD45+ cells), treated over vehicle treated mice: 4.0%
  % of reduction, PMNs (CD11b-Ly6G double + cells), treated over vehicle treated mice: −13.0%

## O=C(O)c1cc(NC(=O)c2cc(O)c(C(=O)Nc3ccc(O)c(C(=O)O)c3)cc2O)ccc1O [Ic-007a, 5-(4-(3-carboxy-4-hydroxyphenylaminocarbonyl)-2,5-dihydroxybenzamido)-2-hydroxy benzoic acid]
[2]; [3]
  % permeability HREC: 126.3 ± 8.3%
[2]; [4]
  % permeability HREC: 127.4 ± 2.1%
[2]; [5]
  % permeability HREC: 111.6 ± 24.2%
[2]; [6]
  p < 0.05 (HREC permeability versus diabetic milieu): * (* p < 0.05 for FITC dextran leakage measured after 90 min in [ng/mL/cm^2] in comparison with diabetic milieu (25 mM D-Gluose + VEGF, TNF-α, IL-β))
[2]; [7]
  % permeability HREC: 159.0 ± 23.9%
COX2 (cycloxygenase-2)
  Inhibition of COX2: partially inhibition
[1]
  % of reduction, CD4+ lymphocytes, treated over vehicle treated mice: 35%
  % of reduction, CD8+ lymphocytes, treated over vehicle treated mice: 71%
  % of reduction, Leukocytes (CD45+ cells), treated over vehicle treated mice: 48%
  % of reduction, PMNs (CD11b-Ly6G double + cells), treated over vehicle treated mice: 80%
[1]; peritoneal exudate cells
  Cell counts, CD4+ lymphocytes, treated mice: 1.03 × 10^4
  Cell counts, CD8+ lymphocytes, treated mice: 0.54 × 10^4
  Cell counts, Leukocytes (CD45+ cells), treated mice: 31.3 × 10^4
  Cell counts, PMNs (CD11b-Ly6G double + cells), treated mice: 2.03 × 10^4
